The record followed here is article PMC6269910 (Molecules, 2013).

The subject of data set [1] is 60 human tumor cell lines. In words: NCI60 in vitro cancer screen. In kind it is cell-based. The following applies: 10 µM; variety of cell lines. An excerpt:
The selected compound N-(ethylcarbamothioyl)-4-[5-(4-methylphenyl)-3-(trifluoromethyl)-1H-pyrazol-1-yl]benzenesulfonamide (1a) was screened by the National Institutes of Health (NIH) for anticancer activity against 60 human tumor cell lines. Most of the compounds in the series of structures submitted include one or more functional groups that have been found troublesome to the development of successful drug candidates. In addition, the selection criteria guidance available at the following DTP web site: http://www.dtp.nci.nih.gov/docs/misc/common_files/guidelines.html. For NCI criteria, compounds, which reduce the growth of any one of the cell lines to approximately 32% or less, are passed on for evaluation in the full panel of cell lines over a 5-log dose range.
The methodology of the NCI60 in vitro cancer screen can be found on-line at http://dtp.nci.nih.gov/branches/btb/ivclsp.html and can be reviewed on their web site.

For data set [2], the system named is stomach. In words: Gastric-ulcerogenic effect (ulcer score). Format: in vivo, mice. The following applies: 200 mg/kg p.o.; animals with lesions/animals.

Regarding `CCNC(=S)NS(=O)(=O)c1ccc(-n2nc(C(F)(F)F)cc2-c2ccc(C)cc2)cc1` [Compound 1a, N-(Ethylcarbamothioyl)-4-[5-(4-methylphenyl)-3-(trifluoromethyl)-1H-pyrazol-1-yl] benzenesulfonamide], the cell growth inhibition entry in data set [1] is “negligible”. Also, in data set [2], the Ulcer score was 0/5.
